System: MDRAB
Test: MIC determination, microdilution broth method
Type: cell-based, Acinetobacter baumannii
[1] = single use, 20 MDRABs, EA=10% ethanol extract
[2] = single use, 20 MDRABs, EA=water extract
[3] = single use, 20 MDRABs, section of the 60% ethanol extract
[4] = single use, 20 MDRABs, section of the 95% ethanol extract

Procedure: Determination methods of a Minimal Inhibitory Concentration (MIC) and a Minimum Bactericidal Concentration (MBC) of a test product: the MIC and the MBC of the Pithecellobium clypearia Benth water or ethanol extract to the MDRAB are determined by a microdilution broth method. And it is operated by referring to the microdilution broth method recommended by National Committee for Clinical Laboratory Standards (NCCLS).

Polymycin B [POLB]
4 µg/mL: MIC50 (MDRABs, EA=60% ethanol extract) | MIC50 (MDRABs, EA=95% ethanol extract) | MIC50 [1] | MIC50 [2] | MIC50 [3] | MIC50 [4] | MIC (strain A5, EA=60% ethanol extract) | MIC (strain A5, EA=95% ethanol extract) | MIC (strain A5, single use, EA=10% ethanol extract) | MIC (strain A5, single use, EA=water extract) | MIC (strain A7, EA=60% ethanol extract) | MIC (strain A7, EA=95% ethanol extract) | MIC (strain A7, single use, EA=10% ethanol extract) | MIC (strain A7, single use, EA=water extract) | MIC (strain A16, EA=60% ethanol extract) | MIC (strain A16, EA=95% ethanol extract) | MIC (strain A16, single use, EA=10% ethanol extract) | MIC (strain A16, single use, EA=water extract) | MIC (strain A18, EA=60% ethanol extract) | MIC (strain A18, EA=95% ethanol extract) | MIC (strain A18, single use, EA=10% ethanol extract) | MIC (strain A18, single use, EA=water extract) | MIC (strain A19, EA=60% ethanol extract) | MIC (strain A19, EA=95% ethanol extract) | MIC (strain A19, single use, EA=10% ethanol extract) | MIC (strain A19, single use, EA=water extract)
0.5 to 64 µg/mL: MIC Range (MDRABs, EA=60% ethanol extract) | MIC Range (MDRABs, EA=95% ethanol extract) | MIC Range [1] | MIC Range [2]
16 µg/mL: MIC90 (MDRABs, EA=60% ethanol extract) | MIC90 (MDRABs, EA=95% ethanol extract) | MIC90 [1] | MIC90 [2] | MIC90 [3] | MIC90 [4] | MIC (strain A11, EA=60% ethanol extract) | MIC (strain A11, EA=95% ethanol extract) | MIC (strain A11, single use, EA=10% ethanol extract) | MIC (strain A11, single use, EA=water extract)
2 µg/mL: MIC (strain A2, EA=60% ethanol extract) | MIC (strain A2, EA=95% ethanol extract) | MIC (strain A2, single use, EA=10% ethanol extract) | MIC (strain A2, single use, EA=water extract) | MIC (strain A3, EA=60% ethanol extract) | MIC (strain A3, EA=95% ethanol extract) | MIC (strain A3, single use, EA=10% ethanol extract) | MIC (strain A3, single use, EA=water extract) | MIC (strain A4, EA=60% ethanol extract) | MIC (strain A4, EA=95% ethanol extract) | MIC (strain A4, single use, EA=10% ethanol extract) | MIC (strain A4, single use, EA=water extract) | MIC (strain A12, EA=60% ethanol extract) | MIC (strain A12, EA=95% ethanol extract) | MIC (strain A12, single use, EA=10% ethanol extract) | MIC (strain A12, single use, EA=water extract) | MIC (strain A13, EA=60% ethanol extract) | MIC (strain A13, EA=95% ethanol extract) | MIC (strain A13, single use, EA=10% ethanol extract) | MIC (strain A13, single use, EA=water extract) | MIC (strain A15, EA=60% ethanol extract) | MIC (strain A15, EA=95% ethanol extract) | MIC (strain A15, single use, EA=10% ethanol extract) | MIC (strain A15, single use, EA=water extract) | MIC (strain A20, EA=60% ethanol extract) | MIC (strain A20, EA=95% ethanol extract) | MIC (strain A20, single use, EA=10% ethanol extract) | MIC (strain A20, single use, EA=water extract)
32 µg/mL: MIC (strain A10, EA=60% ethanol extract) | MIC (strain A10, EA=95% ethanol extract) | MIC (strain A10, single use, EA=10% ethanol extract) | MIC (strain A10, single use, EA=water extract)
1 µg/mL: MIC (strain A9, EA=60% ethanol extract) | MIC (strain A9, EA=95% ethanol extract) | MIC (strain A9, single use, EA=10% ethanol extract) | MIC (strain A9, single use, EA=water extract)
0.5 µg/mL: MIC (strain A14, EA=60% ethanol extract) | MIC (strain A14, EA=95% ethanol extract) | MIC (strain A14, single use, EA=10% ethanol extract) | MIC (strain A14, single use, EA=water extract)
64 µg/mL: MIC (strain A17, EA=60% ethanol extract) | MIC (strain A17, EA=95% ethanol extract) | MIC (strain A17, single use, EA=10% ethanol extract) | MIC (strain A17, single use, EA=water extract)
8 µg/mL: MIC (strain A1, EA=60% ethanol extract) | MIC (strain A1, EA=95% ethanol extract) | MIC (strain A1, single use, EA=10% ethanol extract) | MIC (strain A1, single use, EA=water extract) | MIC (strain A6, EA=60% ethanol extract) | MIC (strain A6, EA=95% ethanol extract) | MIC (strain A6, single use, EA=10% ethanol extract) | MIC (strain A6, single use, EA=water extract) | MIC (strain A8, EA=60% ethanol extract) | MIC (strain A8, EA=95% ethanol extract) | MIC (strain A8, single use, EA=10% ethanol extract) | MIC (strain A8, single use, EA=water extract)

— patent US11793849B2, “Method of Chinese herbal medicine extract used for treating multiple diseases caused by drug resistant bacteria infection” (priority 2016, dated 2023)
